The values below come from PubChem BioAssay (NCI).

Test systems include NCI/ADR-RES ovarian; A498 renal; T-47D breast; CCRF-CEM leukemia; HCT-15 colon; UO-31 renal; MDA-MB-435; SK-OV-3 ovarian; SF-268 CNS; COLO 205 colon; MOLT-4 leukemia; KM12 colon; OVCAR-4 ovarian.
What all share (test): NCI-60 cell line screen, 48 h

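The compound was tested at five concentrations on cells cultured in 96-well plates, with a 48-hour exposure period. TGI: concentration producing complete growth inhibition.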

Take `CCc1ccc2oc(-c3cc(O)c(-c4nc5cc(CC)ccc5o4)cc3O)nc2c1`: the TGI with NCI/ADR-RES ovarian, in the assay on A498 renal, in the assay with T-47D breast, with CCRF-CEM leukemia, with HCT-15 colon and with UO-31 renal was more than 100 µM each time. The TGI with MDA-MB-435, in the assay with SK-OV-3 ovarian, with SF-268 CNS, in the assay with COLO 205 colon and in the assay on MOLT-4 leukemia was more than 100 µM each time.
Turning to `O=C(O)c1ccc(S(=O)(=O)c2ccccc2[N+](=O)[O-])cc1`, the TGI with NCI/ADR-RES ovarian, with A498 renal, with T-47D breast, in the assay with CCRF-CEM leukemia, in the assay on HCT-15 colon and in the assay on KM12 colon was more than 10 µM in each case. For the same compound, the TGI with MDA-MB-435, in the assay with SK-OV-3 ovarian, in the assay with SF-268 CNS, with COLO 205 colon, with OVCAR-4 ovarian and in the assay with MOLT-4 leukemia was more than 10 µM each time.
`CCOC(=O)/C=C(/C(=O)OCC)n1ccc(N)nc1=O`: the TGI with NCI/ADR-RES ovarian is more than 100 µM; with T-47D breast, more than 100 µM; in the assay with CCRF-CEM leukemia it was 76 µM; in the assay with HCT-15 colon, more than 100 µM; in the assay with UO-31 renal, more than 100 µM; in the assay on KM12 colon, more than 100 µM. The TGI in the assay on MDA-MB-435, in the assay on SK-OV-3 ovarian, in the assay on SF-268 CNS, with COLO 205 colon, in the assay on OVCAR-4 ovarian and in the assay on MOLT-4 leukemia was more than 100 µM each time.
In the case of `C=CCCC(=O)CC(O)(C(F)(F)F)C(F)(F)F`, the TGI in the assay on NCI/ADR-RES ovarian, with A498 renal, in the assay on T-47D breast, with CCRF-CEM leukemia, in the assay with HCT-15 colon and in the assay on UO-31 renal was more than 100 µM throughout. For the same compound, the TGI in the assay with KM12 colon, in the assay on MDA-MB-435, in the assay with SK-OV-3 ovarian, in the assay with COLO 205 colon, with OVCAR-4 ovarian and in the assay with MOLT-4 leukemia was more than 100 µM each time.
As for `Cc1ccc2c(c1)[nH]c1cc(C(F)(F)F)ccc1[p+]2=O` (stereo not given), the TGI in the assay on NCI/ADR-RES ovarian is more than 100 µM; in the assay with A498 renal it was 74.5 µM; in the assay on T-47D breast, more than 100 µM; with CCRF-CEM leukemia it was 50.2 µM; in the assay with HCT-15 colon, more than 100 µM; in the assay with KM12 colon it was more than 100 µM. In addition, the TGI was more than 100 µM with MDA-MB-435; more than 100 µM in the assay with SK-OV-3 ovarian; more than 100 µM in the assay on SF-268 CNS; 31.5 µM in the assay on COLO 205 colon; 79.2 µM in the assay with OVCAR-4 ovarian; 52 µM in the assay with MOLT-4 leukemia.
Consider `COC(=O)C1=CC(=O)OC1(OO)c1ccccc1` (stereo not given), for which the TGI in the assay on NCI/ADR-RES ovarian was more than 100 µM; with T-47D breast, more than 100 µM; in the assay on CCRF-CEM leukemia, 51.1 µM; in the assay with HCT-15 colon, more than 100 µM; in the assay on UO-31 renal it was more than 100 µM; in the assay with KM12 colon it was more than 100 µM. For the same compound, the TGI in the assay on MDA-MB-435, in the assay on SK-OV-3 ovarian, in the assay with COLO 205 colon, in the assay on OVCAR-4 ovarian and in the assay on MOLT-4 leukemia was more than 100 µM each time.
`CCCSc1ccc2[nH]c(/N=C/c3ccco3)cc2c1`: the TGI with NCI/ADR-RES ovarian was more than 100 µM; with A498 renal, more than 100 µM; in the assay on T-47D breast, more than 100 µM; with CCRF-CEM leukemia, 80 µM; with HCT-15 colon, more than 100 µM; with UO-31 renal it was more than 100 µM. Further, the TGI in the assay on KM12 colon was more than 100 µM; in the assay on MDA-MB-435 it was more than 100 µM; with SK-OV-3 ovarian, more than 100 µM; in the assay on SF-268 CNS, more than 100 µM; in the assay on COLO 205 colon, 49.7 µM; in the assay with OVCAR-4 ovarian it was more than 100 µM.
Take `Nc1c(Cl)ncnc1N[C@@H]1C[C@H]1CO`: the TGI with NCI/ADR-RES ovarian, with A498 renal, in the assay on T-47D breast, in the assay with CCRF-CEM leukemia, in the assay on HCT-15 colon and in the assay on UO-31 renal was more than 100 µM each time. Also, the TGI with KM12 colon, with MDA-MB-435, in the assay with SF-268 CNS, with COLO 205 colon, with OVCAR-4 ovarian and with MOLT-4 leukemia was more than 100 µM each time.
On to `NC(=O)NNC(=O)c1nc[nH]c1[N+](=O)[O-]`, for which the TGI in the assay on NCI/ADR-RES ovarian, in the assay with A498 renal, in the assay on T-47D breast, in the assay on CCRF-CEM leukemia, in the assay on HCT-15 colon and in the assay with UO-31 renal was more than 100 µM throughout. Moreover, the TGI with MDA-MB-435, in the assay with SK-OV-3 ovarian, in the assay with SF-268 CNS, with COLO 205 colon, in the assay with OVCAR-4 ovarian and with MOLT-4 leukemia was more than 100 µM each time.
For `C/C=C/C(O)P1(=O)N(Cc2ccccc2)[C@@H]2CCCC[C@H]2N1Cc1ccccc1` (stereo not given in full), the TGI in the assay with NCI/ADR-RES ovarian, in the assay on T-47D breast, with CCRF-CEM leukemia, with HCT-15 colon, with UO-31 renal and in the assay with KM12 colon was more than 25 µM throughout. For the same compound, the TGI in the assay with MDA-MB-435, in the assay on SK-OV-3 ovarian, in the assay with SF-268 CNS, in the assay with COLO 205 colon, with OVCAR-4 ovarian and in the assay with MOLT-4 leukemia was more than 25 µM throughout.
Regarding `CC1=NN(c2ccc(S(=O)(=O)O)cc2)C2(C1)SCC(=O)N2c1nc2ccccc2s1` (stereo not given), the TGI in the assay with NCI/ADR-RES ovarian, with A498 renal, in the assay on T-47D breast, in the assay with HCT-15 colon, in the assay with UO-31 renal and with KM12 colon was more than 100 µM throughout. Moreover, the TGI with MDA-MB-435, in the assay with SK-OV-3 ovarian, with SF-268 CNS, in the assay on COLO 205 colon, in the assay on OVCAR-4 ovarian and with MOLT-4 leukemia was more than 100 µM throughout.
As for `CC1(CF)SCc2nc3ccccc3n21` (stereo not given), the TGI with NCI/ADR-RES ovarian, with A498 renal, in the assay on T-47D breast, in the assay with HCT-15 colon, with UO-31 renal and with KM12 colon was more than 100 µM in each case. The TGI with MDA-MB-435, with SK-OV-3 ovarian, in the assay with SF-268 CNS and in the assay with COLO 205 colon was more than 100 µM throughout.
